Source: patent US4101381A, “Method and reagent for the determination of substances forming hydrogen peroxide” (Boehringer Mannheim GmbH, priority 1976, dated 1978)
Converted amounts (≈) assume the structure as drawn. Where two headings read alike, the source gives them in different places.

Key:
[1] = solubility in an aqueous medium at pH 1; assay type: physicochemical
[2] = prior-art method; cited from earlier work

solubility ([1]; read-out: solubility in an aqueous medium) [mg/mL]	solubility ([1]; read-out: solubility) [mg/mL]	SMILES	stability [2]
48 (≈ 268 mM)	–	Cn1c(=NN)sc2ccccc21 [MBTH, 3-methylbenzothiazolonehydrazone]	low stability
–	6	Cn1c(=NN)sc2cc(S(=O)(=O)O)ccc21 [MBTH sulfonate, 3-methyl-2-(sulfonyl)-benzothiazolonehydrazone]	–
